Reference: patent publication EP4691473A1, “PLATYCLADUS ORIENTALIS EXTRACT, PREPARATION METHOD THEREFOR AND USE THEREOF” (Beijing Academy of TCM Beauty Supplements Co., Ltd., priority 2023, dated 2024)

Experiments:
5α-reductase = 5α-reductase (Mus musculus, UniProt Q68FF9); assay: 5α-Reductase Inhibition Test (decrease in absorbance at 340 nm, NADPH/testosterone); type: biochemical; conditions: for A: absorbance decrease at 340 nm
Method: • (1) Test drug: Sample of Example 52 • (2) Positive control drug: Finasteride, a product of Merck Sharp & Dohme Limited; Appearance: Film-coated tablets, white after removal of the coating; Specification: 5 mg/tablet; Batch number: 0022050. Storage conditions: light-shielded, airtight, and stored at room temperature. • (3) Drug preparation: The sample of Example 52 was tested at 10 concentrations: 35 mg/mL (solute: the sample of Example 52, solvent: 20% aqueous ethanol solution) was adopted as the initial concentration, and nine 2.5-fold gradient dilutions were made by using 20% aqueous ethanol solution; and five 2-fold gradient dilutions of the positive control finasteride were made by using anhydrous ethanol. • (4) Reagents: Reduced coenzyme II (NADPH), a product of Sigma, Catalog number N7505, Batch number 041939; testosterone (T), a product of Merck, Catalog number T-037; Batch number FE03112002; Tris buffer: Shanghai Yuanye Biotechnology Co., Ltd., Batch number J17HR10516A. • (5) Test instrument: ZDN microplate reader, a product of BioTek.
Mouse liver was obtained by dissection, and was added into a Tris buffer at a ratio of 1:5 for homogenization at 0°C. The homogenized liver was centrifuged at 10000g for 15 minutes, the supernatant was centrifuged at 55000g for another hour, and then the supernatant was placed at 4°C for later use. Reagents and samples were added according to the reaction system. Sample of Example 52 and finasteride sample at each dilution were added 4 times. After incubation at 37°C for 60 minutes, the decrease in absorbance ΔA at 340nm was measured. Inhibition rate (%) = (blank ΔA−sample ΔA)/(blank ΔA) × 100 [formula]
The 5α-reductase reaction system is shown in Table 16: Table 16 Reagent amount for the reaction system (µL)

Malassezia = Malassezia antibacterial test (microbroth method, OD600 after 72 hours); type: cell-based; conditions: Ketoconazole 4µg/mL, read-out: Malassezia inhibition rate, positive control
Method: A culture medium and Malassezia were mixed thoroughly by shaking until no sediment was present at the bottom. A sterile syringe was used to pipette 200-800 µL of the bacterial suspension into fresh culture medium and incubate at 30°C in a biochemical incubator. After 2-3 days of incubation, the sample was subcultured.
A sterile malt extract culture medium was transferred into a sterile 50mL centrifuge tube. The sterile malt extract culture medium was centrifuged at 25°C and 3500 rpm for 10 minutes. The supernatant was transferred to another sterile 50mL centrifuge tube for later use.
Each sample was diluted with fresh culture medium to a concentration of 50 mg/mL, 40 mg/mL, 30 mg/mL, 20 mg/mL, 10 mg/mL, or 5 mg/mL.
The culture medium and Malassezia were mixed thoroughly by shaking and transferred to a sterile 50mL centrifuge tube. The mixture was centrifuged at 25°C and 1000 rpm for 30 seconds. The supernatant was transferred to a sterile 50 mL centrifuge tube and centrifuge at 25°C and 3500 rpm for 10 minutes.
A microplate reader was set at a wavelength of 600 nm. […] The OD600 value of the bacterial suspension was detected at 600 nm. […]
The required volume of bacterial suspension was calculated. […]
The sterile 96-well culture plate was placed in a 30°C incubator. After 72 hours of incubation, the absorbance at 600nm was recorded. […]

5α-reductase, sequence (Q68FF9 whole entry): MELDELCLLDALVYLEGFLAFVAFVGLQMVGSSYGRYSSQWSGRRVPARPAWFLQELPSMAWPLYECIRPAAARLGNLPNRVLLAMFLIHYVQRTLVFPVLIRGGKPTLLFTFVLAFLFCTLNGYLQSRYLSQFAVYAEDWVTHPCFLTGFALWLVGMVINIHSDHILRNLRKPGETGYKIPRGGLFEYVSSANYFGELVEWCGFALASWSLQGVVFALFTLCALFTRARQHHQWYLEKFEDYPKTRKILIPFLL

Row | Structure (SMILES) | inhibition at 0.003 µg/mL (5α-reductase; Finasteride 0.003 µg/mL, read-out: Inhibition rate) [%] | inhibition at 0.006 µg/mL (5α-reductase; Finasteride 0.006 µg/mL, read-out: Inhibition rate) [%] | inhibition at 0.012 µg/mL (5α-reductase; Finasteride 0.012 µg/mL, read-out: Inhibition rate) [%] | inhibition at 0.025 µg/mL (5α-reductase; Finasteride 0.025 µg/mL, read-out: Inhibition rate) [%] | inhibition at 0.05 µg/mL (5α-reductase; Finasteride 0.050 µg/mL, read-out: Inhibition rate) [%] | A (5α-reductase; Finasteride 0.003 µg/mL) | A (5α-reductase; Finasteride 0.012 µg/mL) | A (5α-reductase; Finasteride 0.025 µg/mL) | A (5α-reductase; Finasteride 0.050 µg/mL) | inhibition at 4 µg/mL (Malassezia) [%]
1 | CC(C)(C)NC(=O)[C@H]1CC[C@H]2[C@@H]3CC[C@H]4NC(=O)C=C[C@]4(C)[C@H]3CC[C@]12C [Finasteride] | 6.12 | 15.4 | 26.3 | 39.2 | 63.1 | 0.10 | 0.08 | 0.07 | 0.04 | 
2 | CC(=O)N1CCN(c2ccc(OCC3COC(Cn4ccnc4)(c4ccc(Cl)cc4Cl)O3)cc2)CC1 (stereo not shown) [Ketoconazole] |  |  |  |  |  |  |  |  |  | 95 ± 3.59
